Experimental data as given in patent US8987260B2, “Pharmaceutical compounds” (F. Hoffmann-La Roche AG, priority 2006, dated 2015).

Experiments:
CYP450 2D6 = CYP450 2D6 (Homo sapiens, UniProt P10635); test: Cytochrome P450 inhibition; assay type: in vitro ADME; conditions: top concentration 100 uM
Excerpt: (§1) Standard inhibitors (furafylline, sulfaphenazole, tranylcypromine, quinidine, ketoconazole) were used as controls. Plates were read using a BMG LabTechnologies PolarStar in fluorescence mode.

CYP450 2C19 = CYP450 2C19 (Homo sapiens, UniProt P33261); test: Cytochrome P450 inhibition; assay type: in vitro ADME; conditions: top concentration 100 uM
Chain of CYP450 2C19 (P33261 whole entry): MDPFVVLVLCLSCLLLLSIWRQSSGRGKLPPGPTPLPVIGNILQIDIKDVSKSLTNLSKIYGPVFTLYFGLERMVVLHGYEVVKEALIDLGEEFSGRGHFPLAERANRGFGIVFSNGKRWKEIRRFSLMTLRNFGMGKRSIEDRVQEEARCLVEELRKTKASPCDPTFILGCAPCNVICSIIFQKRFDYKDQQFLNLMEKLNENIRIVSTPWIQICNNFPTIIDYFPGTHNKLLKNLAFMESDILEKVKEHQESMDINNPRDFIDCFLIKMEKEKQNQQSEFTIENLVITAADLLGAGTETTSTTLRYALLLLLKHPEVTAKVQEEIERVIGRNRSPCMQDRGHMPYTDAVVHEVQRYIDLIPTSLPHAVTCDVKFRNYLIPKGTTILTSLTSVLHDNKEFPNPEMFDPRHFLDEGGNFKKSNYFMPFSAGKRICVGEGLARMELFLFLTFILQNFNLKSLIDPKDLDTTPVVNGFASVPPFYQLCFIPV
Excerpt: as §1

CYP450 2C9 = CYP450 2C9 (Homo sapiens, UniProt P11712); test: Cytochrome P450 inhibition; assay type: in vitro ADME; conditions: top concentration 100 uM
Chain of CYP450 2C9 (P11712 whole entry): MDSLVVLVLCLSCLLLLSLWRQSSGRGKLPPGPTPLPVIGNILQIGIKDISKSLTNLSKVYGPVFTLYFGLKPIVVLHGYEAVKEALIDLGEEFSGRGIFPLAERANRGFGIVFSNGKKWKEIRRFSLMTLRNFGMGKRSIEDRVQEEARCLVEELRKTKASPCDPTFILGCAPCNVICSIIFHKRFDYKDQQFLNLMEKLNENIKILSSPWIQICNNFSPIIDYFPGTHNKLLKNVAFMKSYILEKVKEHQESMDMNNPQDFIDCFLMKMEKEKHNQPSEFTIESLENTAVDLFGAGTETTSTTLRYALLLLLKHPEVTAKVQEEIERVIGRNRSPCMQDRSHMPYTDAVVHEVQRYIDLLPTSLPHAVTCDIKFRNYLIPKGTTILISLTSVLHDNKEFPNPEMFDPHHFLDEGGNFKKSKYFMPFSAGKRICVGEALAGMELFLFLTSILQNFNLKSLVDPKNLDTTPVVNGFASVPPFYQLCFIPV
Excerpt: as §1

CYP450 3A4 = CYP450 3A4 (Homo sapiens, UniProt P08684); test: Cytochrome P450 inhibition; assay type: in vitro ADME; conditions: top concentration 100 uM
Chain of CYP450 3A4 (P08684 whole entry): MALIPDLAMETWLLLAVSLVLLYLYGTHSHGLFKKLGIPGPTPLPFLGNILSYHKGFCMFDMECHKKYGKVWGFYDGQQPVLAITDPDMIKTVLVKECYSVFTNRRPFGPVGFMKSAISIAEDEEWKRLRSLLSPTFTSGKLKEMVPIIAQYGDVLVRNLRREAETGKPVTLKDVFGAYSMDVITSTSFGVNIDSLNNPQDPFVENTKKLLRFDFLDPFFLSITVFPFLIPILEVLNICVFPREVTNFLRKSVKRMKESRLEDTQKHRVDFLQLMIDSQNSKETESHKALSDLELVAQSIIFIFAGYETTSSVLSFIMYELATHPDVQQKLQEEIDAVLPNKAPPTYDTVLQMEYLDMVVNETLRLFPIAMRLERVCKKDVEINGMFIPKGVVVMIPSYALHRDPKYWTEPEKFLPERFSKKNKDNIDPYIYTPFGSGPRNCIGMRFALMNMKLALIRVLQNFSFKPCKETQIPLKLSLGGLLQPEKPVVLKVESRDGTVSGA
Excerpt: as §1

CYP450 1A2 = target: T1, CYP450 1A2 (Homo sapiens, UniProt P05177); test: Cytochrome P450 inhibition; assay type: in vitro ADME; conditions: top concentration 100 uM
T1 sequence (P05177 1-516): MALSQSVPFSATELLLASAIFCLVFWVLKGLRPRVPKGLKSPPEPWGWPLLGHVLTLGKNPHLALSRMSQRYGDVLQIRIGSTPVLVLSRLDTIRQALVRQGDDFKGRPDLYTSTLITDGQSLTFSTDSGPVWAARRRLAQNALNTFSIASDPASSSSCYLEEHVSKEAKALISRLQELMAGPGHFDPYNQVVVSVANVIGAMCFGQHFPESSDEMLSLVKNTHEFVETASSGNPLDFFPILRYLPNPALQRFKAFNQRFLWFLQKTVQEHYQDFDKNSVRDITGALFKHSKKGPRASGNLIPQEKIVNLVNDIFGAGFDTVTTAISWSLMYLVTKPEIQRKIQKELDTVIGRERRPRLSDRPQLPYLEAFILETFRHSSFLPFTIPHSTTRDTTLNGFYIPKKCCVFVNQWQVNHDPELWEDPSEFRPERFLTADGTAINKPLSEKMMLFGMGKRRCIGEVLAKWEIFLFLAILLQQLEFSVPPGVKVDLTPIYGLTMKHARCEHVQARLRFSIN
Excerpt: as §1

[1] = Aqueous solubility at physiological pH; assay type: physicochemical; conditions: aqueous medium at physiological pH, pH 7.4, aqueous buffer
PI3K = tested on: T2, PI3K; assay type: biochemical; conditions: purified recombinant enzyme, ATP 1 uM, 1 h room temperature; read-out: IC50 against PI3K
T2 construct: other: purified recombinant enzyme, ATP 1 uM, 1 h room temperature
Description: The compound was serially diluted in 100% DMSO. The kinase reaction was incubated for 1 h at room temperature, and the reaction was terminated by the addition of PBS. IC50 values were subsequently determined using sigmoidal dose-response curve fit (variable slope).

in vitro = conditions: human, Caco-2
range of cell lines = test: Cellular proliferation inhibition (Alamar Blue); assay type: cell-based; conditions: 96 h; 4 days incubation, range of cell lines utilized
Description: Cells were seeded at optimal density in a 96 well plate and incubated for 4 days in the presence of test compound. Alamar Blue™ was subsequently added to the assay medium, and cells were incubated for 6 h before reading at 544 nm excitation, 590 nm emission. EC50 values were calculated using a sigmoidal dose response curve fit.

[2] = Plasma protein binding (equilibrium dialysis); assay type: in vitro ADME; conditions: 10% plasma (v/v in buffer), 37° C., read-out: fraction unbound (Fu)
Description: Solutions of test compound (5 um, 0.5% final DMSO concentration) were prepared in buffer and 10% plasma (v/v in buffer). A 96 well HT dialysis plate was assembled so that each well was divided in two by a semi-permeable cellulose membrane. The buffer solution was added to one side of the membrane and the plasma solution to the other side; incubations were then conducted at 37° C. over 2 h in triplicate. The cells were subsequently emptied, and the solutions for each batch of compounds were combined into two groups (plasma-free and plasma-containing) then analysed by LC-MSMS using two sets of calibration standards for plasma-free (6 points) and plasma-containing solutions (7 points).

Chain of CYP450 2D6 (P10635 whole entry): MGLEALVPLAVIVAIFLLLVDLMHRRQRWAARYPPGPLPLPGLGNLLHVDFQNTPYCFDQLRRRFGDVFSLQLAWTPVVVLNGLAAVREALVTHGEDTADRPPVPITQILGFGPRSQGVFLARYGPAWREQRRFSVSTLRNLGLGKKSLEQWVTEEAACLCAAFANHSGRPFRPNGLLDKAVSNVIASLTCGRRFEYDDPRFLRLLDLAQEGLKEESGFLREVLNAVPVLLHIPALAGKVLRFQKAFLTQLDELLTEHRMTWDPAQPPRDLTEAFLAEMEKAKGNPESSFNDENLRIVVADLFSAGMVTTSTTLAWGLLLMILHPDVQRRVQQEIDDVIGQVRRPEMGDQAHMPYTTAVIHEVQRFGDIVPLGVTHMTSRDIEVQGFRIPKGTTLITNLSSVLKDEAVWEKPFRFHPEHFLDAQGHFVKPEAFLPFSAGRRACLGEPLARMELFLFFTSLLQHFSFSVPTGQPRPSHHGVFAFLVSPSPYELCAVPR

**Q.** For `CS(=O)(=O)N1CCN(Cc2cc3nc(-c4cccc5[nH]ncc45)nc(N4CCOCC4)c3s2)CC1` [compound of the invention, 2-(1H-Indazol-4-yl)-6-(4-methanesulfonyl-piperazin-1-ylmethyl)-4-morpholin-4-yl-thieno[3,2-d]pyrimidine], which IC50 (CYP450 2D6) is on record?
**A.** Its IC50 is no less than 5 µM.

**Q.** What about the IC50 (CYP450 2C19) of the same compound?
**A.** Its IC50 is no less than 5 µM.

**Q.** What about the IC50 (CYP450 2C9) of the same compound?
**A.** The IC50 was no less than 5 µM.

**Q.** And the IC50 (CYP450 3A4)?
**A.** Its IC50 is no less than 5 µM.

**Q.** What about the IC50 (CYP450 1A2) of the same compound?
**A.** Its IC50 is no less than 5 µM.

**Q.** And the solubility [1]?
**A.** The solubility was greater than 100 µM.

**Q.** What about the Papp (in vitro) of the same compound?
**A.** The Papp was no less than 1 ×10⁻⁶ cm/s.

**Q.** And the EC50 (range of cell lines)?
**A.** The EC50 was no more than 50 µM.

**Q.** What about the fraction unbound at 2 h, 5 um [2] of the same compound?
**A.** Its fraction unbound at 2 h, 5 um is no less than 0.1.
